In US20040116523A1, “Use of c4-c10 acids for preventing gram-negative bacterial infections” (priority 2000, published 2004):

Columns and labels:
[1] = test system: enteropathogenic and enterotoxigenic E. coli; settings: 1.25 g/l; cited from earlier work
Vibrio cholerae = settings: 1.25 g/l; cited from earlier work
[2] = test system: iagA′-lacZcat fusion in S. typhi strain Ty267; assay: "Biotype 100" plate screen for carbon-based substrates that repress the iagA′-lacZcat fusion (β-galactosidase activity); format: cell-based; settings: "Biotype 100" cupule, amount of substrate not known; favourable LB medium; 36 hours at 37° C.; control cupule without substrate 11 250
Procedure: Each of the strains described above was cultured at 37° C. on agar or in TCS broth. The P-galactosidase activity was determined using 4-methyl-umbelliferyl-p-D-galactopyranoside sold by the company Sigma, according to the technique of Klarsfeld et al. (Mol. Mibrobiol., 1994, 13, 585-597). The results, expressed in P-galactosidase units (fluorescence per hour and per OD600), represent the mean of the values obtained in at least three independent experiments. The standard deviations were less than 10% of the values presented.
A “Biotype 100”® plate sold by the company BioMerieux is composed of 100 microcupules. Each micro-cupule contains a dehydrated carbon-based substrate, with the exception of the first cupule, which is a control without substrate (the amount of dehydrated substrate per cupule is not given by the manufacturer).
In the context of the present example, these plates were used to search for carbon-based compounds which would block the expression of the invasion genes in Salmonella.
For this, the S. typhi strain Ty267, which is a derivative of the parental strain Ty2 carrying the iagA′-lacZcat transcriptional fusion (Table I), was cultured in TCS broth for 18 hours at 37° C. with shaking (200 rpm).
This culture was then diluted 100-fold in favourable LB medium (0.6 ml of culture for 60 ml of favourable LB), and then this suspension was used immediately to seed the 100 cupules of a “Biotype 100”® plate, in a proportion of 450 μl of suspension per cupule.
After incubation for 36 hours in an incubator at 37° C., the activity of the iagA′-lacZcat fusion in the Ty267 strain was determined for the culture of each cupule.
By comparing the value of the P-galactosidase activity measured in a cupule containing a carbon-based substrate with that of the control cupule without substrate, it was possible to investigate whether a substrate had no effect on, activated or repressed the expression of the iagA′-lacZcat fusion.
The S. typhi strain Ty267 (iagA′-lacZ fusion), suspended in the favourable LB medium, was used to seed the “Biotype 100”® plates.
The β-galactosidase activity expressed by the iagA′-lacZ fusion was determined for the culture in each cupule. With respect to the β-galactosidase activity measured in the control cupule without substrate (11 250 β-galactosidase units), no substrate caused an increase in the expression of the iagA′-lacZ fusion.

CCCCCCCC(=O)[O-].[Na+] [sodium caprylate]
bactericidal activity in vitro on enteropathogenic and enterotoxigenic E. coli [1]: no bactericidal activity | bactericidal activity in vitro on Vibrio cholerae (Vibrio cholerae): no bactericidal activity | β-galactosidase activity expressed by the iagA′-lacZ fusion in the cupule [2]: 47 β-galactosidase units
